Data on two molecules can be found in patent US9060966B2, “Use of 2,5-dihydroxybenzene derivatives for the treatment of arthritis and pain” (priority 2006, dated 2015).

For experiment [1], the system named is intestinal inflammatory disease (IID) induced by DSS. The experiment in a line: Intestinal inflammatory disease induced by dextran sulfate sodium in mice. Type of experiment: in vivo. The note with it: for disease clinical score (0 to 6 scale): first two DSS cycles. The procedure: The mice were subject to two 7-day cycles of exposure to dextran sulfate sodium (DSS) (from day 1 to 7 and from day 14 to 21) in the drinking water separated by 7 days in which regular water was provided (from 7 to 14). One group was treated with vehicle (0.9% NaCl), another with Solu-Medrol (10 mg/kg/day i.m.), and the other two groups with potassium 2,5-diacetoxybenzene sulfonate (DABS), one of them with 100 mg/kg/day i.p. and the other with 125 mg/kg/day, orally (p.o.). The body weight was normalized on day 0. Data are expressed as the mean±SD of the percentage of the basal weight (day 0) of 10 mice per group.
The mice were subject to two 7-day cycles of exposure to dextran sulfate sodium (DSS) (from day 1 to 7 and from day 14 to 21) in the drinking water separated by 7 days in which regular water was provided (from 7 to 14). One group was treated with vehicle (0.9% NaCl), another with Solu-Medrol (10 mg/kg/day i.m.), and the other two groups with potassium 2,5-diacetoxybenzene sulfonate (DABS), one of them with 100 mg/kg/day i.p. and the other with 125 mg/kg/day, orally (p.o.) Data are expressed as the mean±SD of the clinical score of the disease continuously obtained from 10 mice per each group.
The induction of the intestinal inflammatory disease described below is a representative model for the evaluation of therapeutic strategies to treat Crohn's disease and ulcerative colitis. 7-8 week old female mice of strain C57BL/6J-664 were used. The intestinal inflammatory disease (IID) was induced by feeding the mice with 3% dextran sulfate sodium (DSS; MW 40,000) dissolved in drinking water in 2 cycles. Each cycle consisted of 7 days with 3% DSS in the drinking water separated by 7 days with regular water. A daily clinical evaluation of the animals was performed in which the body weight, the consistency of the faeces and the presence of blood in the faeces were determined. Thus, the validated score of the clinical activity of the disease was evaluated with a 0 to 6 scale, considering the following parameters: consistency of the faeces, presence or absence of fecal blood and loss of weight.
At the end of the first cycle of exposure to DSS, the mice were divided into the following treatment groups: a first group was administered intraperitoneal (i.p) injections of vehicle (0.9% NaCl). Another group received intramuscular injections of Solu-Medrol, a standard IID treatment, at a dose of 10 mg/kg/day. A third group was administered i.p. injections of potassium 2,5-diacetroxybenzene sulfonate (DABS, 100 mg/kg/day). The last group was treated orally with 125 mg/kg day of DABS.

The test system of experiment [2] is uterine tissue implanted in the peritoneal cavity. The experiment in a line: Rat model of endometriosis (autologous implant, histology). Type of experiment: in vivo. Particulars: 200 mg/kg/day i.p., two weeks. An excerpt:
In these rats, the epithelial layer (a) and the stroma (b) are clearly observed in the endometrium, while longitudinal (c) and circular (d) normal layers of smooth muscle cells are observed in the myometrium adjacent to the peritoneal tissue (e). […] The neovascularization observed in the uterine tissue implanted in control rats (shown with arrows in A) is not present in rats treated with 2,5-dihydroxybenzenesulfonic (DHBS) (C). • D) Magnification of the area marked with a box in C.
Sprague-Dawley rats were anesthetized as described (Fernandez-Tornero C et al. J Biol Chem, 2003). Endometriotic lesions were induced using a known rat model of endometriosis (Vernon M W and Wilson E A. Fertil Steril, 1985). In summary, 2 mm fragments of the cervix were autologously implanted between branches in the mesenteric vascular tree. The rats were treated or not treated (control) daily during two weeks after the surgery with 2,5-dihydroxybenzene sulfonic acid (DHBS) (200 mg/kg; i.p.). Then, the rats were sacrificed and the endometrial ectopic tissue was removed to make its histological examination. […] This example illustrates the therapeutic activity of 2,5-dihydroxybenzene sulfonate (DHBS) in the treatment of endometriosis.

SMILES strings stand for the structures. “Also recorded” adds a separate entry of the source.

As to `CC(=O)Oc1ccc(OC(C)=O)c(S(=O)(=O)[O-])c1.[K+]` [DABS, potassium 2,5-diacetoxybenzene sulfonate], the “disease clinical score (0 to 6 scale)” value in experiment [1] (100 mg/kg/day i.p.) and in experiment [1] (125 mg/kg/day oral) was “reduced” in each case. Besides, in experiment [1] (DABS 100 mg/kg/day i.p. or 125 mg/kg/day p.o., routes not distinguished), the “loss of weight produced by the two cycles of exposure to DSS” value is listed as “reduced”. For the same molecule, the “efficacy compared with the standard treatment Solu-Medrol” value in experiment [1] (body weight and clinical score, Solu-Medrol 10 mg/kg/day i.m.) is “not lower (in some points it is higher)”.

Regarding `O=S(=O)(O)c1cc(O)ccc1O` [DHBS, 2,5-dihydroxybenzenesulfonic acid], in experiment [2], the “histology of the implanted uterine (cervix) tissue, hematoxylin-eosin” value is reported as “athrophy of the cervix tissue implanted; also recorded: Degeneration of the uterine tissue implanted” and the “neovascularization of the implanted uterine tissue” value was “not present”.
